In ChEMBL document CHEMBL1156774, “Design of O-acetylserine sulfhydrylase inhibitors by mimicking nature” (J Med Chem, 2010):

Key:
[1] = biological target: T1, Cysteine synthase (Haemophilus influenzae (strain ATCC 51907 / DSM 11121 / KW20 / Rd)) (UniProt P45040); assay: (§1) Binding affinity to Haemophilus influenzae O-acetylserine sulfhydrylase expressed in Escherichia coli BL21 (DE3) by fluorescence emission spectra analysis
T1 sequence (whole entry): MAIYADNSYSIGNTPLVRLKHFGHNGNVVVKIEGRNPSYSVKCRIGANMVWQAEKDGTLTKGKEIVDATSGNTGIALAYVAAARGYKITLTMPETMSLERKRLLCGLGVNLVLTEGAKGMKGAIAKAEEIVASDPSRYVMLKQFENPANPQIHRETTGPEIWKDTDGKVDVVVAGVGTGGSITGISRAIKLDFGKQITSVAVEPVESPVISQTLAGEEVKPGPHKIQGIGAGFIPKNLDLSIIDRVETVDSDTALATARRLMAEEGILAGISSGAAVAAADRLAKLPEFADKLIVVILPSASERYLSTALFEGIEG

[2] = biological target: T2, Cysteine synthase (Haemophilus influenzae (strain ATCC 51907 / DSM 11121 / KW20 / Rd), UniProt P45040); assay: as §1
T2 sequence (P45040 whole entry): T1 sequence (whole entry)

Substance | Kdiss [1] [µM] | Kd [2] [µM]
H-MNVPI-OH | 3330 | 3310
H-MNYSI-OH | 60.8 | 60.3
H-MNEGI-OH | 2270 | 2290
H-MNLGI-OH | 570 | 575
H-MNDGI-OH | 1030 | 1020
